From article PMC10058949, “Effect of N-Terminal Peptide Modifications on In Vitro and In Vivo Properties of ^177Lu-Labeled Peptide Analogs Targeting CCK2R” (Pharmaceutics, 2023) come the findings set out here.

By IC50 is commonly meant the concentration needed to halve the response being measured. Usually tissue uptake stands for the percentage of the injected dose found per gram of tissue. What is called logD is the decadic logarithm of the distribution of all forms, ionised or not, between an organic phase and buffer at a given pH. A high value points to a more lipophilic compound.

Structures are written as SMILES. Like-named read-outs stand apart in the source and are kept apart here. Non-standard residues stand in square brackets, D forms with d. Residues, ends and D or L forms follow the SMILES beside them. *: point of attachment. DOTA = O=C(O)CN1CCN(CC(=O)O)CCN(CC(=O)*)CCN(CC(=O)O)CC1; 1Nal = N[C@@H](Cc1cccc2ccccc12)C(=O)O; NMeNle = CCCC[C@H](NC)C(=O)O

One series addresses T1, CCK2R (Homo sapiens, UniProt P32239).
T1 construct: expressed in transfected cells; host or cells: A431 human epidermoid carcinoma cells (A431-CCK2R, from Dr. Luigi Aloj)
T1 sequence (P32239 1-447): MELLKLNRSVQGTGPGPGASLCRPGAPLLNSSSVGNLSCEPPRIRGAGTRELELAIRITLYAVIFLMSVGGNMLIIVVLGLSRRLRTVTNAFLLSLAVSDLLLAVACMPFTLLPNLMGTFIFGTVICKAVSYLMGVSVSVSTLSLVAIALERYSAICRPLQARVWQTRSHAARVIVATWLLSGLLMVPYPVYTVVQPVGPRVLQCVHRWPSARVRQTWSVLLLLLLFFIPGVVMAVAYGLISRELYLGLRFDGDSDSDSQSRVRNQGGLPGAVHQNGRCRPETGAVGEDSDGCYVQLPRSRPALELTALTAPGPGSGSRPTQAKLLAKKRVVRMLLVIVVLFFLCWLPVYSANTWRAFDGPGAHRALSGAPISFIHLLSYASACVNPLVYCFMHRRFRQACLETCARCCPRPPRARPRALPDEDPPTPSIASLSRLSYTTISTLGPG
As to the kind of experiment: Competition assay against [125I][3-iodo-Tyr12,Leu15]gastrin-I on A431-CCK2R cells. The format is binding.

Series [1] is described as follows: Biodistribution blocking experiment with 1000-fold excess of non-radiolabeled peptide. Particulars: female, BALB/c nude, mouse, in vivo, iv, total radioactivity, blocking. The format is in vivo, mice. As to the method: (§1) Then, after 7–11 days, when visible tumor xenografts were formed, groups of 5 mice were injected intravenously via a lateral tail vein with ~0.5 MBq of radiolabeled peptide, corresponding to 20 pmol of peptide, in a total volume of ~150 µL in PBS/0.5% BSA. Using an additional mouse per group, a blocking study was performed by co-injecting a 1000-fold molar excess of the respective peptide analog (20 nmol) together with the radiolabeled peptide. For quantification, a 1:1, 1:10 and 1:50 standard was prepared using aliquots of the injection solution mixed with PBS/0.5% BSA. Mice were euthanized by cervical dislocation 4 h after injection. Subsequently, a blood sample was collected, and different tissues were dissected. All samples, as well as the rest of the body were weighed, and the activity measured in the γ-counter together with the standard. Results were expressed as percentage of injected activity per gram of tissue (%IA/g).

Another series relates to human serum proteins. Nature of the series: Protein binding in human serum by Sephadex G-50 size-exclusion chromatography. The format is in vitro ADME. As to the method:
(§2) The stability studies with the ^177Lu-labeled peptide analogs were carried out at a concentration of 0.5 nmol peptide/mL in fresh human serum (n = 2) for up to 24 h. A mixture of 0.05 nmol/mL of the radiolabeled peptides in PBS and octanol (1/1, v/v) was used to evaluate the octanol/PBS distribution coefficient (logD7.4; n = 8). To determine the protein binding in human serum by Sephadex G-50 size-exclusion chromatography (GE Healthcare Illustra, Little Chalfont, UK), a 25 µL serum sample was used for different time points after incubation. All steps were performed according to previously published protocols.
(Size exclusion chromatography separates by hydrodynamic size, large species first.)

Series [2] is described as follows: Octanol/PBS distribution coefficient (logD7.4). Particulars: pH 7.4. In kind it is physicochemical. As to the method: as §2
A short description of series [3]: Biodistribution 4 h p.i. in A431-CCK2R/A431-mock xenografted BALB/c nude mice. The format is in vivo. The conditions noted are these: female, BALB/c nude, mouse, in vivo, iv, 20 pmol, total radioactivity. As to the method: as §1

Regarding `CCCC[C@@H](C(=O)N[C@@H](CC(=O)O)C(=O)N[C@@H](Cc1cccc2ccccc12)C(N)=O)N(C)C(=O)[C@H](Cc1c[nH]c2ccccc12)NC(=O)CNC(=O)[C@H](Cc1ccc(O)cc1)NC(=O)[C@H](C)NC(=O)[C@@H](CCC(=O)O)NC(=O)[C@@H](CCC(=O)O)NC(=O)[C@@H](CCC(=O)O)NC(=O)[C@@H](CCC(=O)O)NC(=O)[C@@H](CCC(=O)O)NC(=O)[C@@H](CCC(=O)O)NC(=O)CN1CCN(CC(=O)O)CCN(CC(=O)O)CCN(CC(=O)O)CC1` [Peptide 1, DOTA-(DGlu)6-Ala-Tyr-Gly-Trp-(N-Me)Nle-Asp-1Nal-NH2] ({DOTA}-[dE][dE][dE][dE][dE][dE]AYGW[NMeNle]D[1Nal]-NH2), the half-inhibitory concentration (IC50) at CCK2R came out at 0.18 ± 0.02 nM.
`CCCC[C@@H](C(=O)N[C@@H](CC(=O)O)C(=O)N[C@@H](Cc1cccc2ccccc12)C(N)=O)N(C)C(=O)[C@H](Cc1c[nH]c2ccccc12)NC(=O)CCNC(=O)CC(O)CNC(=O)CC(O)CNC(=O)CN1CCN(CC(=O)O)CCN(CC(=O)O)CCN(CC(=O)O)CC1` (stereo partly drawn) [Peptide 2, DOTA-(GABOB)2-βAla-Trp-(N-Me)Nle-Asp-1Nal-NH2]: the half-inhibitory concentration (IC50) at CCK2R (A431-CCK2R cells, 1 h room temperature, n = 3, read-out: IC50) was determined as 0.24 nM.
With `CCCC[C@@H](C(=O)N[C@@H](CC(=O)O)C(=O)N[C@@H](Cc1cccc2ccccc12)C(N)=O)N(C)C(=O)[C@H](Cc1c[nH]c2ccccc12)NC(=O)CNC(=O)[C@H](Cc1ccc(O)cc1)NC(=O)[C@H](C)NC(=O)[C@@H](CCC(=O)O)NC(=O)[C@@H](CCC(=O)O)NC(=O)[C@@H](CCC(=O)O)NC(=O)[C@@H](CCC(=O)O)NC(=O)[C@@H](CCC(=O)O)NC(=O)[C@@H](CCC(=O)O)NC(=O)CN1CCN(CC(=O)O)CCN(CC(=O)O)CCN(CC(=O)O)CC1` [[^177Lu]Lu-1, metal not drawn] ({DOTA}-[dE][dE][dE][dE][dE][dE]AYGW[NMeNle]D[1Nal]-NH2), the tissue uptake at 4 h in series [1] (uptake in A431-CCK2R xenograft) amounted to 0.45 %ID/g; in series [1] (uptake in A431-mock xenograft) it was 0.12 %ID/g; in series [1] (uptake in blood) it was 0.03 %ID/g; in series [1] (uptake in femur), 0.18 %ID/g; in series [1] (uptake in heart) it was 0.05 %ID/g; in series [1] (uptake in lung), 0.06 %ID/g. In addition, the tissue uptake at 4 h was determined as 0.05 %ID/g in series [1] (uptake in pancreas); 0.06 %ID/g in series [1] (uptake in stomach); 22.2 ± 6.23 %ID/g in series [3] (uptake in A431-CCK2R xenografts); 0.14 ± 0.04 %ID/g in series [3] (uptake in A431-mock xenografts); 0.02 %ID/g in series [3] (uptake in blood); 0.21 ± 0.05 %ID/g in series [3] (uptake in femur). The tissue uptake at 4 h in series [3] (uptake in heart) is 0.06 ± 0.01 %ID/g; in series [3] (uptake in intestine) it was 0.42 ± 0.07 %ID/g; in series [3] (uptake in kidneys), 21.6 ± 2.11 %ID/g; in series [3] (uptake in liver) it was 2.48 ± 0.39 %ID/g; in series [3] (uptake in lung) it was 0.12 ± 0.04 %ID/g; in series [3] (uptake in muscle), 0.04 ± 0.02 %ID/g. Also, the tissue uptake at 4 h in series [3] (uptake in pancreas) worked out at 1.25 ± 0.27 %ID/g; in series [3] (uptake in spleen) it was 1.86 ± 0.62 %ID/g; in series [3] (uptake in stomach), 4.77 ± 1.1 %ID/g. Besides, the “change in binding to human serum proteins compared to [177Lu]Lu-DOTA-MGS5” value in the series on human serum proteins was “increased by a factor of two”. For the same compound, the logD in series [2] is -4.18 ± 0.24.
